Series [1] deals with T1, recombinant human alpha-synuclein (ASN) aggregate (Homo sapiens, UniProt P37840).
T1 construct: purchased Sigma-Aldrich
The series can be described thus: Fluorescence excitation and emission spectra of dye in the presence of aggregated alpha-synuclein. The conditions noted are these: for In the presence of aggregate: Emission wavelength / In the presence of aggregate: Excitation wavelength: 1 μM aggregated ASN, 50 mM Tris-HCl, pH 7.8, 10 μM dye. The series is classed as binding. Here is the method:
(§1) Fluorescent readings were carried out in 50 mM Tris-HCl, pH 7.8 using 10 μM dye. […] Fluorescence excitation and emission spectra were collected on a Cary Eclipse fluorescence spectrophotometer (Varian, Australia). Fluorescence spectra were measured with excitation and emission slit widths set to 5 nm, and at a constant PMT voltage. Spectroscopic measurements were performed in standard quartz cells. All measurements were made at the respective excitation maxima of each dye. All measurements were carried out at room temperature.

Series [2] in a line: Fluorescence excitation and emission spectra of dye freely dissolved in buffer. Type of series: physicochemical. As to conditions: 50 mM Tris-HCl, pH 7.8, 10 μM dye, room temperature. Here is the method: as §1
Series [3] deals with goat-anti-mouse IgG aggregate. Description: Fluorescence enhancement (aggregate/native IgG) in the presence of excipients. As to conditions: for Fluorescence enhancement (aggregate/native IgG): 2.8 μM IgG, 0.625 μM dye; for Fluorescence enhancement (aggregate/native IgG), Average: Average over all excipient conditions. Type of series: binding. The method, then:
IgG aggregate was prepared by adjusting 5.83 mg/ml of purified goat-anti-mouse IgG (H&L, Pel Freez, Rogers, Ark.) to pH 2.7 using HCl and incubating at 22° C. for 24 hours. The assay was performed using 2.8 μM IgG, either native or aggregated, and a dye concentration of 0.625 μM. The protein and dye were mixed together for 15 minutes at 22° C., then this was further incubated in the presence of the excipients shown in the table. The fluorescence intensity of S-25, Tol3 and Y2150 were determined with a FLUOstar OPTIMA plate reader (BMG LABTECH) at excitation wavelength of 550 nm and emission wavelength of 610 nm; while the fluorescence intensity for Thioflavin-T was determined using a SpectraMAX GeminiXS (Molecular device, with Softmax Pro 7.0) using an excitation wavelength of 435 nm and emission wavelength of 495 nm. The fluorescence enhancement (aggregate/native IgG) is shown.

Molecules are shown by their SMILES.

For `CN(C)c1ccc(/C=C/c2cc[n+](Cc3ccccc3C[n+]3ccc(/C=C/c4ccc(N(C)C)cc4)cc3)cc2)cc1.[Br-].[Br-]` [Dye S43], in series [1], the “In the presence of aggregate: Emission wavelength” value stood at 623 nm and the “In the presence of aggregate: Excitation wavelength” value was 550 nm.

As for `Cc1ccc2c(c1)sc(-c1ccc(N(C)C)cc1)[n+]2C.[Cl-]` [Thioflavin-T, Thioflavin T, reference compound], in series [2], the “Dye freely dissolved in buffer: Emission wavelength” value came to 472 nm. Further, the “Dye freely dissolved in buffer: Excitation wavelength” value in series [2] was 400 nm. Moreover, in series [1], the “In the presence of aggregate: Emission wavelength” value came to 480 nm. For the same compound, the “In the presence of aggregate: Excitation wavelength” value in series [1] is 447 nm. In addition, the Stokes shift in series [1] (as seen in Table 1) is 23 nm. The “Fluorescence enhancement (aggregate/native IgG)” value in series [3] (Ammonium Sulfate, 10 mM) was found to be 2.8 fold; in series [3] (Ammonium Sulfate, 100 mM), 2.6 fold; in series [3] (Ammonium Sulfate, 300 mM) it was 1.4 fold; in series [3] (Arginine, 200 mM) it was 1.4 fold; in series [3] (Arginine, 500 mM) it was 2.0 fold; in series [3] (Ascoric Acid, 1 mM), 1.5 fold. For the same compound, the “Fluorescence enhancement (aggregate/native IgG)” value in series [3] (Calcium Chloride, 10 mM) came to 3.1 fold; in series [3] (Calcium Chloride, 50 mM), 1.5 fold; in series [3] (Calcium Chloride, 200 mM), 1.7 fold; in series [3] (DTT, 1 mM), 1.6 fold; in series [3] (Glycine, 0.5%) it was 3.1 fold; in series [3] (Glycine, 2%), 3.2 fold. The “Fluorescence enhancement (aggregate/native IgG)” value in series [3] (Lactose, 100 mM) was found to be 1.2 fold; in series [3] (Lactose, 300 mM), 1.4 fold; in series [3] (Mannitol, 100 mM) it was 3.1 fold; in series [3] (Mannitol, 300 mM), 3.7 fold; in series [3] (Mannitol, 600 mM), 1.8 fold; in series [3] (Sodium Chloride, 10 mM), 1.6 fold. The “Fluorescence enhancement (aggregate/native IgG)” value in series [3] (Sodium Chloride, 100 mM) was found to be 1.3 fold; in series [3] (Sodium Chloride, 1000 mM), 2.7 fold; in series [3] (Sorbitol, 100 mM), 3.0 fold; in series [3] (Sorbitol, 300 mM), 1.9 fold; in series [3] (Sorbitol, 600 mM), 3.6 fold; in series [3] (Trehalose, 100 mM) it was 2.2 fold. Besides, the “Fluorescence enhancement (aggregate/native IgG)” value in series [3] (Trehalose, 300 mM) is listed as 0.2 fold; in series [3] (Trehalose, 600 mM), 4.8 fold; in series [3] (Tween 20, 0.01%), 4.6 fold; in series [3] (Tween 20, 0.2%), 2.6 fold; in series [3] (X100, 0.01%), 5.3 fold; in series [3] (X100, 0.2%), 6.6 fold. The “Fluorescence enhancement (aggregate/native IgG)” value in series [3] (X100, 1%) was determined as 3.4 fold. The “Fluorescence enhancement (aggregate/native IgG), Average” value in series [3] came to 2.9 fold.

Regarding `CCN(CC)c1ccc(/C=C/c2cc[n+](CCCC[n+]3ccc(/C=C/c4ccc(N(CC)CC)cc4)cc3)cc2)cc1.[I-].[I-]` [Yat 2134], in series [2], the “Dye freely dissolved in buffer: Emission wavelength” value is 620 nm and the “Dye freely dissolved in buffer: Excitation wavelength” value came to 500 nm. In series [1], the “In the presence of aggregate: Emission wavelength” value amounted to 613 nm and the “In the presence of aggregate: Excitation wavelength” value is 535 nm.

Regarding `CCN(CC)c1ccc(/C=C/c2cc[n+](Cc3ccccc3C[n+]3ccc(/C=C/c4ccc(N(CC)CC)cc4)cc3)cc2)cc1.[Br-].[Br-]` [Yat 2148], in series [1], the “In the presence of aggregate: Emission wavelength” value was determined as 625 nm and the “In the presence of aggregate: Excitation wavelength” value was 553 nm.

Consider `CCN(CC)c1ccc(/C=C/c2cc[n+](CCOCC[n+]3ccc(/C=C/c4ccc(N(CC)CC)cc4)cc3)cc2)cc1.[I-].[I-]` [Yat 2149], for which, in series [2], the “Dye freely dissolved in buffer: Emission wavelength” value is given as 614 nm and the “Dye freely dissolved in buffer: Excitation wavelength” value is on record as 502 nm. Moreover, in series [1], the “In the presence of aggregate: Emission wavelength” value is listed as 617 nm and the “In the presence of aggregate: Excitation wavelength” value was found to be 534 nm.

Turning to `CCN(CC)c1ccc(/C=C/c2cc[n+](CCCCCCCCCC[n+]3ccc(/C=C/c4ccc(N(CC)CC)cc4)c(C)c3)cc2C)cc1` [Yat 2150], the “Dye freely dissolved in buffer: Emission wavelength” value in series [2] was 612 nm. Further, the “Dye freely dissolved in buffer: Excitation wavelength” value in series [2] is 485 nm. Further, the “In the presence of aggregate: Emission wavelength” value in series [1] turned out to be 610 nm. Besides, the “In the presence of aggregate: Excitation wavelength” value in series [1] was found to be 515 nm. Further, the “Fluorescence enhancement (aggregate/native IgG)” value amounted to 12.4 fold in series [3] (Ammonium Sulfate, 10 mM); 12.5 fold in series [3] (Ammonium Sulfate, 100 mM); 14.6 fold in series [3] (Ammonium Sulfate, 300 mM); 14.4 fold in series [3] (Arginine, 200 mM); 14.3 fold in series [3] (Arginine, 500 mM); 14.5 fold in series [3] (Ascoric Acid, 1 mM). In addition, the “Fluorescence enhancement (aggregate/native IgG)” value came out at 12.4 fold in series [3] (Calcium Chloride, 10 mM); 14.7 fold in series [3] (Calcium Chloride, 50 mM); 13.9 fold in series [3] (Calcium Chloride, 200 mM); 11.3 fold in series [3] (DTT, 1 mM); 12.5 fold in series [3] (Glycine, 0.5%); 19.0 fold in series [3] (Glycine, 2%). The “Fluorescence enhancement (aggregate/native IgG)” value in series [3] (Lactose, 100 mM) is reported as 17.5 fold; in series [3] (Lactose, 300 mM) it was 31.0 fold; in series [3] (Mannitol, 100 mM) it was 11.2 fold; in series [3] (Mannitol, 300 mM), 13.8 fold; in series [3] (Mannitol, 600 mM), 17.7 fold; in series [3] (Sodium Chloride, 10 mM), 14.4 fold. Moreover, the “Fluorescence enhancement (aggregate/native IgG)” value is listed as 11.3 fold in series [3] (Sodium Chloride, 100 mM); 15.0 fold in series [3] (Sodium Chloride, 1000 mM); 17.3 fold in series [3] (Sorbitol, 100 mM); 15.6 fold in series [3] (Sorbitol, 300 mM); 18.7 fold in series [3] (Sorbitol, 600 mM); 14.0 fold in series [3] (Trehalose, 100 mM). The “Fluorescence enhancement (aggregate/native IgG)” value in series [3] (Trehalose, 300 mM) is 19.4 fold; in series [3] (Trehalose, 600 mM), 18.9 fold; in series [3] (Tween 20, 0.01%) it was 5.5 fold; in series [3] (Tween 20, 0.2%) it was 2.6 fold; in series [3] (X100, 0.01%), 4.1 fold; in series [3] (X100, 0.2%), 2.6 fold. Also, the “Fluorescence enhancement (aggregate/native IgG)” value in series [3] (X100, 1%) came out at 1.7 fold. Further, in series [3], the “Fluorescence enhancement (aggregate/native IgG), Average” value came to 14.8 fold.

The record behind these values is patent US9932479B2, “Dyes and compositions, and processes for using same in analysis of protein aggregation and other applications” (Enzo Biochem, Inc., priority 2009, dated 2018).
